According to PMC4648050, “Discovery of Inhibitors of Trypanosoma brucei by Phenotypic Screening of a Focused Protein Kinase Library” (Chemmedchem, 2015):

How the values were obtained:
Type in all cases: biochemical, human/mammalian
[1] = molecular target: T1, IKKe (Homo sapiens, UniProt Q14164); assay: Kinase panel: IKKe; settings: compound at 10 μM, read-out: % of activity respect of the control
T1 sequence (Q14164 1-716): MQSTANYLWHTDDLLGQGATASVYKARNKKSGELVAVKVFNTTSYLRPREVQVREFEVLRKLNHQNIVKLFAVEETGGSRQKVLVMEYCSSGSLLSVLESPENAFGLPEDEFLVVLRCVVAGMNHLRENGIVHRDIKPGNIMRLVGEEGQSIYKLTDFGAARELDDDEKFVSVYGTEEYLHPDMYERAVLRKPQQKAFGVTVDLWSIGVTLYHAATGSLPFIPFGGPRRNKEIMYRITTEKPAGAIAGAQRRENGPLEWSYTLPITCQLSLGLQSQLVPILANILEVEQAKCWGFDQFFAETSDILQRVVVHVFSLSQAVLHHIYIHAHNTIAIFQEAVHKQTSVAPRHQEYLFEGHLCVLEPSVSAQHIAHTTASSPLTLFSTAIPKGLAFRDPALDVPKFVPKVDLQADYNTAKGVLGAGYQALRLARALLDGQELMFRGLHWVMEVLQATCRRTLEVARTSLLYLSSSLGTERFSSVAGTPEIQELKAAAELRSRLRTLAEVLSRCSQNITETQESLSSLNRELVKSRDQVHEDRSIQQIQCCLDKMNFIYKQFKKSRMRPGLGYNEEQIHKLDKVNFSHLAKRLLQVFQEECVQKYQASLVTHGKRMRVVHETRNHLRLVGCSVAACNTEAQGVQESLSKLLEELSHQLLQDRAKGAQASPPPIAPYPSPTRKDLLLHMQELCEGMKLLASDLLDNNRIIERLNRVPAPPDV
Protocol: (§1) The DDU kinase-focused compound set contains lead-like scaffolds that are designed to target protein kinases; they have kinase hinge binding motifs. Four of the 1H-imidazopyrazinones were screened against a human/mammalian kinase panel at the University of Dundee (http://www.kinase-screen.mrc.ac.uk) at a concentration of 10 μM. At the time of testing the panel contained 79 mammalian kinases selected to provide a broad coverage of the mammalian kinome (∼500 kinases in the human genome).[3] None of the compounds were active against any of the kinases at 10 μM.

[2] = molecular target: PKCa (Homo sapiens, UniProt P17252); assay: Kinase panel: PKCa; settings: compound at 10 μM, read-out: % of activity respect of the control
Protocol: as §1

[3] = molecular target: P38b MAPK (Homo sapiens, UniProt Q15759); assay: Kinase panel: P38b MAPK; settings: compound at 10 μM, read-out: % of activity respect of the control
Protocol: as §1

[4] = test system: AMPK; assay: Kinase panel: AMPK; settings: compound at 10 μM
Protocol: as §1

[5] = molecular target: MARK3 (Homo sapiens, UniProt P27448); assay: Kinase panel: MARK3; settings: compound at 10 μM, read-out: % of activity respect of the control
Protocol: as §1

[6] = molecular target: IR-HIS (Homo sapiens, UniProt P06213); assay: Kinase panel: IR-HIS; settings: compound at 10 μM, read-out: % of activity respect of the control
Protocol: as §1

[7] = molecular target: FGF-R1 (Homo sapiens, UniProt P11362); assay: Kinase panel: FGF-R1; settings: compound at 10 μM, read-out: % of activity respect of the control
Protocol: as §1

[8] = molecular target: PAK6 (Homo sapiens, UniProt Q9NQU5); assay: Kinase panel: PAK6; settings: compound at 10 μM, read-out: % of activity respect of the control
Protocol: as §1

[9] = molecular target: HIPK2 (Homo sapiens, UniProt Q9H2X6); assay: Kinase panel: HIPK2; settings: compound at 10 μM, read-out: % of activity respect of the control
Protocol: as §1

[10] = molecular target: T2, SGK1 (Homo sapiens, UniProt O00141); assay: Kinase panel: SGK1; settings: compound at 10 μM, read-out: % of activity respect of the control
T2 sequence (O00141 1-431): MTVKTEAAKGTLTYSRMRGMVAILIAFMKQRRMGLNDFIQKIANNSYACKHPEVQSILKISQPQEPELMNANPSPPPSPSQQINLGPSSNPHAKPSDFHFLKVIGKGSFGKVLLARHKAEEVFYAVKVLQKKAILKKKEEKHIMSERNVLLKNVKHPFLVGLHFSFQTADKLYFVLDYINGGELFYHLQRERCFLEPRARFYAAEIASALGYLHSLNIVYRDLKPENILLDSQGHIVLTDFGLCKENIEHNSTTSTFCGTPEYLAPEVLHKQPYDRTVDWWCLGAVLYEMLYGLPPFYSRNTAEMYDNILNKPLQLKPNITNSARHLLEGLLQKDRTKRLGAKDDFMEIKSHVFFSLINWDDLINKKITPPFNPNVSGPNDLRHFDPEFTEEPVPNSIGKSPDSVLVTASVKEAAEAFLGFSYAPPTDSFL
Protocol: as §1

[11] = molecular target: CK2 (Homo sapiens, UniProt P68400); assay: Kinase panel: CK2; settings: compound at 10 μM, read-out: % of activity respect of the control
Protocol: as §1

[12] = molecular target: T3, ERK8 (Homo sapiens, UniProt Q8TD08); assay: Kinase panel: ERK8; settings: compound at 10 μM, read-out: % of activity respect of the control
T3 sequence (Q8TD08 1-544): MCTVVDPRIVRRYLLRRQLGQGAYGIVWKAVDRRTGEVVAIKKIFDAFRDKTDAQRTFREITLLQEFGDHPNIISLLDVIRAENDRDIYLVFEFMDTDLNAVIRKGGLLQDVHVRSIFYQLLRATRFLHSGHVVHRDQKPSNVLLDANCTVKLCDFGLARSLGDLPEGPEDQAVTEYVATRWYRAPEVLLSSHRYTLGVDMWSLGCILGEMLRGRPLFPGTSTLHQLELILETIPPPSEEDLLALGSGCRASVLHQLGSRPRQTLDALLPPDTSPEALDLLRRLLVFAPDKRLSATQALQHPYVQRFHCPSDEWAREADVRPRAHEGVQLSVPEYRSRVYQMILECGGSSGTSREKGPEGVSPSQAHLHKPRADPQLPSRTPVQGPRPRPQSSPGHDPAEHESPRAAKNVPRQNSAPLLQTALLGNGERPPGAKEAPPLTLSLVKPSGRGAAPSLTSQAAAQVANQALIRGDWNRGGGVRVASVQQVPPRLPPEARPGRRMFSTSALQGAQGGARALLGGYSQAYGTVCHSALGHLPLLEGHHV
Protocol: as §1

Sequence of CK2 (P68400 whole entry): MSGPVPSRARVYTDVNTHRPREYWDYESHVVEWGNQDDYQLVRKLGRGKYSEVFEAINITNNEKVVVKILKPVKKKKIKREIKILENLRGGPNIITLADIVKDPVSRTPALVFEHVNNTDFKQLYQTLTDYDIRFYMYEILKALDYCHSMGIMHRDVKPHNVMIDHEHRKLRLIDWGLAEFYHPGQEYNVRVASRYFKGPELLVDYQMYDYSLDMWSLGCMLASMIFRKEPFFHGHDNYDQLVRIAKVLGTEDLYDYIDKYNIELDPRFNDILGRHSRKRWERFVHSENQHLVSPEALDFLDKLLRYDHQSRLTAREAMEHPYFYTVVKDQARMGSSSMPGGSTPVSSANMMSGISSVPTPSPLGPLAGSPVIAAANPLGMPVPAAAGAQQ
Sequence of FGF-R1 (P11362 22-822): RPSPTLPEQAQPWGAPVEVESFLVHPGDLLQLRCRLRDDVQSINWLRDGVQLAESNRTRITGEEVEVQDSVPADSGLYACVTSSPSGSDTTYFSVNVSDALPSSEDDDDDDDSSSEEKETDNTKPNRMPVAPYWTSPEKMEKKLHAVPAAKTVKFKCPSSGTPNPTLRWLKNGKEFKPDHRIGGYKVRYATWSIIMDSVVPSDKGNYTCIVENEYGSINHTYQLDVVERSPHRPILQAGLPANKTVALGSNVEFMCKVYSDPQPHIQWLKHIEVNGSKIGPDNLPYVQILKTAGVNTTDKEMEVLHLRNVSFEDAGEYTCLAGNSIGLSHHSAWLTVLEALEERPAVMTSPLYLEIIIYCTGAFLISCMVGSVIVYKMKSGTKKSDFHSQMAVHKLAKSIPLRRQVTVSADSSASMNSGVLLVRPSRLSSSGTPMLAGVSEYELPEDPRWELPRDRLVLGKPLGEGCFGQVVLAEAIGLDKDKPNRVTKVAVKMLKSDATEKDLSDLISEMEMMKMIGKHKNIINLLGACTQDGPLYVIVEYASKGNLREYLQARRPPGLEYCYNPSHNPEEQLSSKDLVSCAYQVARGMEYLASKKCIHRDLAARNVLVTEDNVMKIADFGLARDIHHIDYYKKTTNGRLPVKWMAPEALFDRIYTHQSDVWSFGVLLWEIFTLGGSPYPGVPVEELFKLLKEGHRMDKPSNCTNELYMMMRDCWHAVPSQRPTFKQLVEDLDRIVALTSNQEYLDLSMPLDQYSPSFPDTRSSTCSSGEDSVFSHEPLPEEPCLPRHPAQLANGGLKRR
Sequence of IR-HIS (P06213 28-1382): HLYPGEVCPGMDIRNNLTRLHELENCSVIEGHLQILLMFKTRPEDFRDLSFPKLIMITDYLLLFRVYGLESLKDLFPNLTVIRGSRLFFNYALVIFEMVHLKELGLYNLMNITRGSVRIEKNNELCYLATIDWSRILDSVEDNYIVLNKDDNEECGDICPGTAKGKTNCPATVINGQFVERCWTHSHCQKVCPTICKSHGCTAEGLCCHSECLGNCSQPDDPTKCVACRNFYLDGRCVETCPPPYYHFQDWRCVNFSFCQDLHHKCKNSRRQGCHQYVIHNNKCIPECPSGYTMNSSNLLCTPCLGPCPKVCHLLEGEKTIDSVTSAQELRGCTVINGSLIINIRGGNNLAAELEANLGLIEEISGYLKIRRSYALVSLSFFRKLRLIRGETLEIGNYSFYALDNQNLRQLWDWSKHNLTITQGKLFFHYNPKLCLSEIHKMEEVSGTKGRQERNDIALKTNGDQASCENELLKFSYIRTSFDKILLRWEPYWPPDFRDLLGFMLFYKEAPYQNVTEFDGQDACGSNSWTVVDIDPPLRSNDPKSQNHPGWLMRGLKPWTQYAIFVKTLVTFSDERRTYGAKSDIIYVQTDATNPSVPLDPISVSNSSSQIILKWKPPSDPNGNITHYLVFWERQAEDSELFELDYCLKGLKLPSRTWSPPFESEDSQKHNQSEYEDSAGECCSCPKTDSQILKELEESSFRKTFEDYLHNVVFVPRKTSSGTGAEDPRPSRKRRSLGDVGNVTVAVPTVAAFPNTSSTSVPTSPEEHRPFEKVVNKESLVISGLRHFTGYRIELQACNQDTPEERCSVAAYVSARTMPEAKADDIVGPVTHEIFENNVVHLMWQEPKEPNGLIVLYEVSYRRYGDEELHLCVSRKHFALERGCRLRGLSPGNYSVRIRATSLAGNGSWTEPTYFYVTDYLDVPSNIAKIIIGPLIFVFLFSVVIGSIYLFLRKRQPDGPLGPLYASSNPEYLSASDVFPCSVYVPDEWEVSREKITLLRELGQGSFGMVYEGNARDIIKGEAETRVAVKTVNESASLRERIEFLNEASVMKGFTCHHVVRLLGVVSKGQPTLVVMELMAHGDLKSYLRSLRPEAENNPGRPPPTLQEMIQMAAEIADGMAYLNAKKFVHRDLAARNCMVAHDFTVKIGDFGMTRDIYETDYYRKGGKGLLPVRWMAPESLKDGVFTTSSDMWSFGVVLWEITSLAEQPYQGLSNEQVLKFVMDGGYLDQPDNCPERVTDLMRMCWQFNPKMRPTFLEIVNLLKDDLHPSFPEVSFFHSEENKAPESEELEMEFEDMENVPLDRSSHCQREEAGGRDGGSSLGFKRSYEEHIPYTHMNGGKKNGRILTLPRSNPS
Sequence of HIPK2 (Q9H2X6 whole entry): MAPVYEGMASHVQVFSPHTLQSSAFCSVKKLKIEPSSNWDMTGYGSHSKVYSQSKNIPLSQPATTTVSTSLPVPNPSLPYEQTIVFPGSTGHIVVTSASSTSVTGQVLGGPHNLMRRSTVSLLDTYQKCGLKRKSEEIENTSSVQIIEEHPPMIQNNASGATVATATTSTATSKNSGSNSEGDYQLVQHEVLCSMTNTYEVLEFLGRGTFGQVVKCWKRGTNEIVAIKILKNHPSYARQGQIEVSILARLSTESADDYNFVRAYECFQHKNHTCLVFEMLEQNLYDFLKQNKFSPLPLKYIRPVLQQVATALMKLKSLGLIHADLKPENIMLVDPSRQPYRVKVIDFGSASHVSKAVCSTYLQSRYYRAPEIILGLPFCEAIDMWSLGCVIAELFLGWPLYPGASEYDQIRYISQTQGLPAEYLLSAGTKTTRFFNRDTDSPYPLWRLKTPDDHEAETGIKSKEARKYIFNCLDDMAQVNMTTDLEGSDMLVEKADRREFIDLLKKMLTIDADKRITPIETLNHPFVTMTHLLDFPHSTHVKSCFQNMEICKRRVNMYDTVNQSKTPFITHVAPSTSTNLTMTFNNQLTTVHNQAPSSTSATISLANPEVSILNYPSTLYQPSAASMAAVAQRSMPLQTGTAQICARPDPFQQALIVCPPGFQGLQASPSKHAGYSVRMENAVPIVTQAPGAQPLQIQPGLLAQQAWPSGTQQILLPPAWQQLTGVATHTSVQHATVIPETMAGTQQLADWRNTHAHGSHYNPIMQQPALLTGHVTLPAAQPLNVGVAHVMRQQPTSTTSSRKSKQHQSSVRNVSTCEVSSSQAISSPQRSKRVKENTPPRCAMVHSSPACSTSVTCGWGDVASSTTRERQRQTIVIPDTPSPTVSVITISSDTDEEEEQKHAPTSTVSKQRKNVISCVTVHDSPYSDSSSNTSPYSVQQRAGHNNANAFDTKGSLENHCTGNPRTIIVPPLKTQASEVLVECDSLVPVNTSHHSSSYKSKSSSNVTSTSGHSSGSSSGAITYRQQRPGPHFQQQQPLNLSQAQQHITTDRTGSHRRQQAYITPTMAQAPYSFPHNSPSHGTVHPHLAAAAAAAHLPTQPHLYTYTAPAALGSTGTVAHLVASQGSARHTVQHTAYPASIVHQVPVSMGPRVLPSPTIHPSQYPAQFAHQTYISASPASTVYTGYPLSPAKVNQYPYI
Sequence of P38b MAPK (Q15759 whole entry): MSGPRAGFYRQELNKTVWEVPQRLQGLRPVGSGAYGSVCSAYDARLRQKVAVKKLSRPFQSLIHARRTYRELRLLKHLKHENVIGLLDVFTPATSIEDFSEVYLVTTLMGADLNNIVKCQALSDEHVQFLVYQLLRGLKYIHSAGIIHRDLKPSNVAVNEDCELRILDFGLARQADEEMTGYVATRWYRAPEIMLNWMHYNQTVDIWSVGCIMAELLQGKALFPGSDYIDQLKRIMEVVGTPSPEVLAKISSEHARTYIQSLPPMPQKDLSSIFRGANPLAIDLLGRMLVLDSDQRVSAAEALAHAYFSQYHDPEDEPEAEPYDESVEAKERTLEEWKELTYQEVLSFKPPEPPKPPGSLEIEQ

Row | SMILES | remaining activity at 10 µM [1] [%] | remaining activity at 10 µM [2] [%] | remaining activity at 10 µM [3] [%] | % of activity respect of the control [4] [%] | remaining activity at 10 µM [5] [%] | remaining activity at 10 µM [6] [%] | remaining activity at 10 µM [7] [%] | remaining activity at 10 µM [8] [%] | remaining activity at 10 µM [9] [%] | remaining activity at 10 µM [10] [%] | remaining activity at 10 µM [11] [%] | remaining activity at 10 µM [12] [%]
1 | CC(c1ccccc1)n1c(=O)[nH]c2ncc(-c3ccc(F)cc3)nc21 (stereo not drawn) [Compound 1] | 106 | 101 | 84 | 97 | 110 | 88 | 95 | 89 | 101 | 104 | 107 | 73
2 | O=c1[nH]c2ncc(-c3ccc(F)cc3)nc2n1CC1CC1 [Compound 10] | 94 | 106 | 101 | 94 | 97 | 109 | 88 | 98 | 69 | 110 | 105 | 70
3 | O=c1[nH]c2ncc(-c3ccc(F)cc3)nc2n1C1CCCCC1 [Compound 12, 1-Cyclohexyl-6-(4-fluorophenyl)-1H-imidazo[4,5-b]pyrazin-2(3H)-one] | 88 | 94 | 122 | 100 | 98 | 119 | 96 | 106 | 97 | 111 | 111 | 80
4 | C[C@H](c1ccccc1)n1c(=O)[nH]c2ncc(-c3ccccc3)nc21 [Compound 14, (R)-6-Phenyl-1-(1-phenylethyl)-1H-imidazo[4,5-b]pyrazin-2(3H)-one] | 91 | 98 | 95 | 95 | 100 | 93 | 63 | 88 | 80 | 98 | 105 | 79
